Data taken from PubChem BioAssay AID2305 (GlaxoSmithKline (GSK), 2010).
Where “and” joins values, the source holds several entries; their conditions need not be identical. Equal entries are not always repeated.

System: P. falciparum 3D7 growth, pLDH absorbance
Test: P. falciparum 3D7 growth inhibition, dose response, strain 3D7 (AID 2305)

SMILES | IC50
Cc1noc(C)c1-c1ccc2c(Nc3ccccc3C(C)(C)C)c(C(=O)NC3CCCC3)cnc2c1 | 1040 nM
O=C(Nc1ccc(-c2csc(-c3nc4ccccc4[nH]3)c2)cc1)Nc1ccsc1 | 550 nM
COc1ccc(CNC2CCN(C)CC2)cc1-c1ccc(OC)c(S(=O)(=O)NCc2ccccc2)c1 | 950 nM
COc1ccc2nccc(NC(=O)N3CCC(NCCOc4cc(F)cc(F)c4)CC3)c2n1 | 770 nM
CO/C(=C\C=C\c1cc2cc(Cl)c(Cl)cc2[nH]1)C(=O)NC1C[C@H]2CCC[C@@H](C1)N2C (stereo partly drawn) | 1000 nM
Cc1cccc2[nH]c(-c3cccc(-c4cccc(C(=O)NCc5nccn5C)c4)c3)nc12 | 530 nM
NS(=O)(=O)c1cccc(-c2ccc3nccc(-c4cccc(S(N)(=O)=O)c4)c3c2)c1 | 1270 nM
CCc1cc2c(=O)c(-c3nc(C)cs3)c([C@H](N)Cc3ccc(O)cc3)oc2cc1O | 900 nM
CCCCCCN1CCN(Cc2cccc(NC(=O)c3cc4ccccc4o3)c2)CC1 | 910 nM
Cc1cc(N2CCCC2)nc(Nc2ccc(NC(=O)Cc3ccccc3)cc2)n1 | 610 nM
CCNc1cc(C(=O)N[C@@H](Cc2cccc(Cl)c2)[C@H](O)CNC(C)CCCC(C)C)cc(N2CCCCS2(=O)=O)c1 (stereo partly drawn) | 290 nM
Cc1c(CNCCCNc2cc(=O)c3ccccc3[nH]2)sc(/C=N/O)c1Br | 1080 nM
CCn1cnc2c(Nc3cccc([N+](=O)[O-])c3)nc(N3CCC(N4CCCCC4)CC3)nc21 | 950 nM
Cc1[nH]c2ccc(NS(C)(=O)=O)cc2c1C1CCN(CC2CCN(C(=O)/C=C/c3ccc(Cl)c(Cl)c3)CC2)CC1 | 680 nM
CCOC(=O)C1=C(C)N=c2sc(=Cc3ccccc3O)c(=O)n2C1c1ccc(OC)c2ccccc12 (stereo not drawn) | 1260 nM
O=C(N[C@@H](Cc1ccccc1)[C@H](O)CNC1CCCc2ccccc21)c1cc(C2CCCC2)cc(N2CCCC2=O)c1 (stereo partly drawn) | 160 nM
O=C(/C=C/c1ccc(Cl)c(Cl)c1)NCCCCCN1CCC(NC(=O)Nc2ccccc2F)CC1 | 840 nM
Cc1cc2nc(/N=C(\N)NC(=O)NC3CCCCC3)nc(C)c2cc1C | 750 nM
Oc1ccc(CCNc2nc(NCc3ccccc3-c3ccc(C(F)(F)F)cc3)nc(NC3CCNCC3)n2)cc1 | 920 nM
Cc1cc(NC(=O)c2cccs2)ccc1OC1CCN(Cc2ccc(F)cc2)C1 (stereo not drawn) | 670 nM
O=S(=O)(Nc1ccc(CCN2CCC(N3CCCCC3)CC2)cc1)c1ccccc1C(F)(F)F | 1020 nM
NCC1(c2nc(-c3ccc(Cl)c(O)c3)c(-c3ccncc3)[nH]2)CCCCC1 | 740 nM
Cc1cc(C)cc(Oc2c(C(F)(F)F)oc3c(CN4CC(C)OC(C)C4)c(O)ccc3c2=O)c1 (stereo not drawn) | 940 nM

SMILES | IC50
COc1cc(C(F)(F)F)cc2[nH]c(CNCCCNc3nc4ccccc4[nH]3)cc12 | 280 nM
CN(C)c1ccc(CN2CCCCC(NC(=O)c3cc(-c4ccccc4F)cs3)C2)cc1 (stereo not drawn) | 830 nM
COc1ccc2ncc(F)c([C@H](O)CN3CCC(NCc4ccc5c(c4)OCCO5)CC3)c2c1 | 150 nM
CC(C)NCc1ccc(-c2cccc(NC(=O)c3cccc(C#N)c3)c2)cc1 | 410 nM
CCOc1ccnc(=O)[nH]1 | 460 nM
COc1ccc(CNCc2ccc(-c3cccc(-c4nc5ccc(F)cc5[nH]4)c3)cc2)cc1 | 200 nM
NC(N)=NN=Cc1c2ccc(Cl)cc2c(Cl)c2ccc(Cl)cc12 | 960 nM
Oc1ccc(Cl)c2c1C(c1ccccc1)=NCC2 | 540 nM
O=C(Nc1cccc(-c2nn3ncccc3c2-c2ccnc(Nc3cccc(-c4cnco4)c3)n2)c1)c1c(F)cccc1F | 170 nM
CCCCCCCN1CC[C@H](NC(=O)Nc2ccnc3ccc(OC)cc23)[C@H](CO)C1 | 180 nM
Cc1cccc(CNc2ncc(C)c(NCCC(=O)Nc3ccccc3)n2)c1 | 1150 nM
O=C(NCCCN1CCOCC1)c1cccc(Nc2nccc(Nc3ccc(Oc4ccccc4)cc3)n2)c1 | 770 nM
COc1cccc(-c2csc(C(=O)NC3CCCCN(Cc4ccc(C(C)(C)C)cc4)C3)c2)c1 (stereo not drawn) | 890 nM
Cc1cccc2[nH]c(-c3cccc(-c4ccc(NC(=O)CS(C)(=O)=O)cc4)c3)nc12 | 1000 nM
CC(C)CNCc1cccc(-c2ccc(CN(CCCN3CCN(C)CC3)C(=O)/C=C/c3ccccc3)cc2)c1 | 860 nM
Cc1ccccc1C1CCN(C2CCC(NC(=O)c3csc(-c4cccc(Cl)c4)n3)CC2)CC1 (stereo not drawn) | 1150 nM
O=C(Nc1ccc(C(F)(F)F)cc1)Nc1ccccc1N1CCNCC1 | 500 nM
O=C(Nc1ccc(C(F)(F)F)cc1)c1cccc(S(=O)(=O)NC2CCN(CC3CCCCC3)CC2)c1 | 850 nM
COc1ccc([N+](=O)[O-])cc1N(Cc1ccccc1-c1ccccc1)S(=O)(=O)c1ccc(C(F)(F)F)cc1[N+](=O)[O-] | 1050 nM
CS(=O)(=O)Cc1cccc(Nc2ncc(Cl)c(Nc3cccnc3C(N)=O)n2)c1 | 170 nM
CCOc1ccc2nc(C)cc(NN=Cc3cccc([N+](=O)[O-])c3)c2c1 | 660 nM
CC(=O)Nc1ccc(C(=O)Nc2cccc(-c3ccc(-c4nc5ccccc5[nH]4)cc3)c2)cn1 | 210 nM
O=C(/C=C/c1ccc(Cl)c(Cl)c1)NCCCCCN1CCC(c2cn[nH]c2-c2ccccc2)CC1 | 1220 nM

SMILES | IC50
CCCNCc1ccc(-c2ccc(CN(CCOC)C(=O)/C=C/c3ccccc3C)cc2)nc1 | 900 nM
O=S(=O)(Nc1cccc(CCN2CCC(N3CCCCC3)CC2)c1)c1cccc2ccccc12 | 940 nM
CCC(CO)NCC(O)Cn1c2ccc(Br)cc2c2cc(Br)ccc21 (stereo not drawn) | 780 nM
O=C(C=Cc1ccc(-c2ccccc2)cc1)NC1CCC(CN2CCC(c3c[nH]c4ccccc34)CC2)CC1 (stereo not drawn) | 810 nM and 740 nM
O=C(/C=C/c1ccccc1Cl)Nc1ccc(Br)c(OCCN2CCCCC2)c1 | 170 nM
O=C(NC1CCN(Cc2ccccc2)CC1)c1cc(-c2cccnc2)nc2ccc(Cl)cc12 | 760 nM
Cc1cccc(C(=O)NC(NC(=S)Nc2ccc([N+](=O)[O-])cc2)C(Cl)(Cl)Cl)c1 (stereo not drawn) | 740 nM
Cc1cc(N2CCCC2)nc(Nc2ccc(NC(=O)c3ccccc3)cc2)n1 | 980 nM
CN1CCC(C(=O)N(Cc2ccc(-c3ccc(CNCCc4ccc(S(C)(=O)=O)cc4)cn3)cc2)Cc2ccc3c(c2)OCO3)CC1 | 1000 nM
O=C(/C=C/c1ccc(Cl)c(Cl)c1)NCCCCCN1CCC(CCNC(=O)/C=C/c2cc(C(F)(F)F)ccc2F)CC1 | 770 nM
CCn1c(Sc2ccc(C#N)c([N+](=O)[O-])c2)nnc1-c1cc(OC)cc(OC)c1 | 570 nM
COc1ccc(-c2nc3c(N)nc(N)nc3nc2-c2ccccc2Cl)cc1 (tested in a mixture with another compound) | 550 nM
CC[C@H]1CN2CC[C@H]1C[C@H]2[C@H](O)c1cc(N2CCCC(C(=O)N(CC)CC)C2)nc2ccc(OC)cc12 (stereo partly drawn) | 70 nM
FC(F)(F)c1ccc2nc(-c3ccc(-c4ccc(CN5CCN(c6cnccn6)CC5)cc4)cc3)[nH]c2c1 | 690 nM
COC(=O)c1cccc(CNCc2ccc(-c3ccc(-c4nc5ccccc5[nH]4)s3)cc2)c1 | 290 nM
Nc1nc(N)c2c(Cl)c(N3CCOCC3)ccc2n1 | 80 nM
Clc1ncccc1-c1nc(NCCC(c2ccccc2)c2ccccc2)no1 | 1000 nM
COc1ccc2nccc([C@@H](O)CN3CCC(NCc4cc5ccccc5nn4)CC3)c2c1 | 1200 nM
O=C(NCC1CCN(Cc2ccsc2)C1)c1cc(-c2cccc(C(F)(F)F)c2)cs1 (stereo not drawn) | 700 nM
COc1ccc2nccc([C@@H](O)CN3CCC(NC(=O)/C=C/c4cc(F)cc(NC(C)=O)c4)CC3)c2c1 | 180 nM
O=C(CN1CCC2(CCC1=O)CC(=O)c1ccccc1O2)NCCN1CCOCC1 (stereo not drawn) | 220 nM
CCCCCCCCCN1CC[C@@H](CCCc2ccnc3ccc(O)cc23)[C@@H](CC)C1 | 290 nM
